# According to US7521540B2, “CYR61 compositions and methods” (Munin Corporation, priority 1996, dated 2009):
# Several values for one entry are separate records, joined by “and”; a condition that tells them apart may be missing. Equal entries are not always repeated.
# How the values were obtained:
# endothelial cells [1] = assay: Peptide inhibition of cell adhesion to Cyr61, endothelial cells; type: cell-based
# Text: (§1) To localize the relevant domain still further, several overlapping peptides were synthesized. The peptides, each having a sequence set forth in one of SEQ ID NOS:33-38, show significant similarity to an ECM signaling molecule such as mouse Cyr61 (SEQ ID NO:2) or human Cyr61 (SEQ ID NO:4). These peptides were then separately tested for their capacities to inhibit Cyr61 adhesion to endothelial cells or fibroblasts. Peptides were separately added at various concentrations to Cyr61-coated wells containing endothelial cells or fibroblasts, as described above. The peptide designated TSP1 (SEQ ID NO:33) inhibited Cyr61 adhesion to endothelial cells or fibroblasts at concentrations of 25 μM or higher.
# To determine if TSP1 was selectively inhibiting Cyr61 binding to […] or α6β1, two integrins found on endothelial cells that bind Cyr61, specific monoclonal antibody blocking studies were performed. These studies involved the separate addition of monoclonal antibody GoH3 (α6-specific, including α6β1; see Example 29) or LM609 ([…]; see Example 29) to cells prior to addition of the mixture to Cyr61-coated wells in the presence or absence of the peptide under study.
# fibroblasts [2] = assay: Peptide inhibition of cell adhesion to Cyr61, fibroblasts; type: cell-based; details: Cyr61-coated wells
# Text: as §1
# endothelial cells [3] = assay: Adhesion to immobilized peptides or GST-domain fusions, endothelial cells; type: cell-based; details: no immobilized Cyr61
# Text: (§2) To further localize domains involved in angiogenesis, including endothelial cell migration, the coding regions for domains I, II and III of Cyr61 were separately fused to a coding sequence for glutathione S-transferase (GST), again using conventional technology. The individual fusion constructs were introduced into bacterial hosts, expressed, and purified with glutathione columns, using conventional techniques.
# (§3) To confirm that the TSP1 peptide was inhibiting Cyr61 activity by directly interacting with the α6β1, integrin, TSP1 and the peptides collectively having SEQ ID NOS:34-38 were used in the aforementioned cell adhesion assay in the absence of immobilized Cyr61. In these assays, wells were coated with one of the peptides and the immobilized peptides were then separately exposed to either endothelial cells (resting or activated) or fibroblasts. […] None of the other tested peptides (having SEQ ID NOS:34-38, collectively) supported cell adhesion in these assays. However, it is expected that peptides comprising sequences from domain II (von Willebrand Factor domain) of Cyr61 will inhibit the interaction between Cyr61 and the αVβ3 integrin receptor, thereby inhibiting the participation of endothelial cells in the process of angiogenesis. […]
# fibroblasts [4] = assay: Adhesion to immobilized peptides or GST-domain fusions, fibroblasts; type: cell-based; details: no immobilized Cyr61
# Text: as §2, §3
# endothelial cells [5] = assay: Matrigel tubule formation assay; type: cell-based
# Procedure: Endothelial cells interacting with Cyr61 require integrin αVβ3 for cell migration and cell survival. However, to form tubules in vitro in a matrigel, integrin α6β1 is required. Thus, the ability of TSP1 to inhibit tubule formation in vitro using a matrigel assay as described in Example 15 (and as known in the art, Davis et al., Exp. Cell Research 216:113-123 (1995), incorporated herein by reference in its entirety) was performed.
# Limb mesenchymal cells [6] = assay: Limb bud mesenchymal cell attachment; type: cell-based, mouse; details: within 1 hour of plating
# Procedure: Cyr61, fibronectin (Gibco), or tenascin (Gibco) were diluted in 0.1% protease-free bovine serum albumin (BSA) in PBS with 0.5 mM PMSF, to a final concentrations of 10 or 50 μg/ml. A 10 μl drop/well was placed in a non-tissue culture treated 24-well plate (Corning), and incubated at room temperature for 2 hours. The wells were blocked with 1% BSA in PBS for 1 hour at room temperature, and rinsed with serum-free MEM (Modified Eagle's Medium). Limb mesenchymal cells, suspended at 5×10^5 cell/ml in serum-free MEM, were added at a volume of 400 μl/well, and incubated at 37° C., 5% CO2 for 1 or 3 hours. At each time point, the cell suspension was removed, the wells were rinsed with MEM and the remaining adherent cells were photographed.
# [7] = tested on: 1064SK primary human foreskin fibroblasts; assay: Fibroblast adhesion assay (methylene blue, A620); type: cell-based
# Procedure: The ability of Cyr61 to mediate cell adhesion in normal fibroblasts was investigated. Microtiter wells were coated with purified recombinant Cyr61 protein, and 1064SK primary human foreskin fibroblasts were allowed to adhere under serum-free conditions. […] 50 μl cell suspensions were plated on microtiter wells coated with varying concentrations (0.5-5.0 μg/ml) of Cyr61 protein. After incubation at 37° C. for 30 minutes, adherent cells were fixed and stained with methylene blue.
# In another experiment, microtiter wells were coated with either BSA, Cyr61 (2 μg/ml), or vitronectin (VN; 0.5 μg/ml) and blocked with affinity-purified anti-Cyr61 antibodies for one hour at 37° C. before 1064SK cells were plated.
# The effects of divalent cations in cell adhesion to Cyr61 was also investigated. […] Data are means from triplicate determinations. […] Inhibition by Ca^2+ is characteristic of adhesion through some members of the β1 family of integrins, including receptors that bind type I collagen, laminin, and vitronectin (integrins α2β1, α6β1, and αVβ1) in fibroblasts, as well as the lymphocyte-specific integrin αLβ2.
# The effects of RGD peptides on Cyr61-mediated fibroblast binding was tested by plating cells in wells coated with Cyr61 (2 μg/ml). Type I collagen (2 μg/ml) or vitronectin (0.5 μg/ml), 2 mM GRGDSP or GRGESP peptide was then added.
# Cells were also pre-incubated with 40 μg/ml monoclonal antibodies against the integrin α5 or the integrin αV subunits at room temperature for 30 minutes, then plated on wells coated with Cyr61 (2 μg/ml), vitronectin (0.5 μg/ml) or fibronectin (FN, 1 μg/ml). […] The data are means, representative of three experiments.
# The 1064 SK cells were also analyzed using the monoclonal antibody JBIA, which binds the β1 integrin subunit. Cells were pre-incubated with the antibody (50 μg/ml) before plating on microtiter wells coated with Cyr61 (2 μg/ml), Type I collagen (2 μg/ml), or vitronectin (0.5 μg/ml). […] Data are means, representative of three experiments.
# To identify the specific β1 integrin that mediates fibroblast adhesion to Cyr61, the inhibitory effects of function-blocking monoclonal antibodies were tested against various integrin α subunits. […] The data are means, representative of at least three experiments.
# HUVE cells = assay: HUVE cell attachment to murine Cyr61-coated plates; type: cell-based, human
# Procedure: Another embodiment of the invention is directed to the use of Cyr61 to mediate cellular attachment to the extracellular matrix. Induction of cellular adhesion was investigated using murine Cyr61, fibronectin, and bovine serum albumin (BSA). Immunological 96-well plates (Falcon brand) were coated with 50 μl of 0.1% BSA in PBS at 4° C. in the presence of 0-30 μg/ml concentrations of murine Cyr61 or fibronectin. After two hours exposure to the coating solution, non-diluted immune or pre-immune antisera (30 μl/well), or affinity-purified anti-Cyr61 antibodies were added. For some wells, the coating mixture was adjusted to 10 mM DTT or 100 mM HCl. After 16 hours incubation, the coating solution was removed and the well surface was blocked with 1% BSA in phosphate-buffered saline (PBS) for 1 hour at room temperature. HUVE cells were plated in Ham's complete F12K medium [GIBCO-BRL, Inc.; Ham, Proc. Natl. Acacd. Sci. (USA) 53:786 (1965)] at 5×10^3-10^4 cells/well. Cycloheximide was added to 100 μg/ml immediately before plating and monensin was added to 1 μM 14 hours before plating. After a 2-hour incubation at 37° C., the wells were washed with PBS and attached cells were fixed and stained with methylene blue. The attachment efficiency was determined by quantitative dye extraction and measurement of the extract absorbance at 650 nm. Oliver et al., J. Cell. Sci. 92:513-518 (1989).
# endothelial cells [8] = details: thrombospondin on endothelial cells; fibronectin cell type not stated; cited from earlier work
# [9] = tested on: Bovine aortic smooth muscle cells (BASM cells); assay: Smooth muscle cell adhesion assay; type: cell-based
# Procedure: Cell adhesion assays were also performed on smooth muscle cells. Bovine aortic smooth muscle cells (BASM cells) were subjected to the cell adhesion assay described above in the context of assaying fibroblasts. […] To identify particular integrin, receptors mediating the Cyr61 induction of BASM cell adhesion, antibody studies were conducted using anti-integrin antibodies recognizing specific integrins. […] Thus, integrin α6β1 mediates Cyr61-induced adhesion of smooth muscle cells. It is expected that Cyr61 polypeptides that include the heparan binding domain IV will induce adhesion of any mammalian smooth muscle cell.
# Limb mesenchymal cells [10] = details: 10 μg/ml, literature; cited from earlier work
substance,measurement,setting,value
H 2N-GQKCIVQTTSWSQCSKS-CO2H (H-GQKCIVQTTSWSQCSKS-OH; cysteine pairing not given here) [TSP1],concentration inhibiting Cyr61 adhesion to endothelial cells,endothelial cells [1]; Cyr61-coated wells,≥ 25 µM
same,effect on Cyr61 binding to the α6β1 integrin,endothelial cells [1]; GoH3/LM609 blocking studies,inhibitied Cyr61 binding to the α6β1 integrin
same,effect on Cyr61 binding to αVβ3,endothelial cells [1]; GoH3/LM609 blocking studies,did not inhibit Cyr61 binding to αVβ3
same,concentration inhibiting Cyr61 adhesion to fibroblasts,fibroblasts [2],≥ 25 µM
same,adhesion of endothelial cells to immobilized peptide or fusion,endothelial cells [3],supported adhesion of endothelial cells and fibroblasts
same,adhesion of fibroblasts to immobilized peptide or fusion,fibroblasts [4],supported adhesion of endothelial cells and fibroblasts
same,tubule formation in matrigel,endothelial cells [5],inhibited tubule formation
fibronectin,attachment morphology of limb mesenchymal cells,Limb mesenchymal cells [6],attached uniformly and started to spread
same,"1064SK adhesion to coated protein, nothing added","[7]; Cyr61 2, VN 0.5, Type I collagen 2, fibronectin 1, laminin 5 μg/ml",0.72 A620 and 0.74 A620
same,"HUVE cell attachment, A650",HUVE cells; coating 1 μg/ml,0.1 A650
same,"HUVE cell attachment, A650",HUVE cells; coating 30 μg/ml,0.9 A650
same,concentration with chemotactic effect,endothelial cells [8],1 to 30 µg/mL
heparin,effect of agent on Cyr61-induced BASM cell adhesion,[9],inhibited Cyr61-induced adhesion
same,levels having no effect on cell adhesion to fibronectin,[7]; fibronectin 1 μg/ml,up to 1000 μg/ml
same,level completely inhibiting cell adhesion to Cyr61,"[7]; soluble, in cell suspension",≥ 0.1 µg/mL
same,level that detectably inhibited binding to Cyr61,"[7]; soluble, in cell suspension",1 ng/mL
same,increase of chondrogenesis in micromass cultures,Limb mesenchymal cells [10],2 fold
